Source: publication PMC7187312 (The New Phytologist, 2020)

Test system: Spinacia oleracea PM H^+-ATPase preincubated with FC/14-3-3 or TeA/14-3-3
Assay type: biochemical

SMILES: C=CC(C)(C)OC[C@H]1O[C@H](O[C@@H]2C3=C([C@H](C)COC(C)=O)C[C@H](O)[C@]3(C)/C=C3/[C@@H](COC)CC[C@H]3[C@@H](C)[C@H]2O)[C@H](O)[C@@H](OC(C)=O)[C@@H]1O [FC, Fusicoccin]
- effect on PM H^+-ATPase activity: activate
- specific activity: 44.1 Pi mg^−1 protein min^−1
